This passage reports transition temperature results from patent US9072774B2, “Porphyrin nanovesicles” (UNIVERSITY HEALTH NETWORK, priority 2009, dated 2015).

A short description of the data set: Differential scanning calorimetry. Type of data set: physicochemical. Conditions: 5 mg/ml in PBS, scan rate 1° C./min. On the procedure: Samples were placed in a vacuum for 30 min prior to measurement. A scan rate of 1° C./min was used for all samples. PBS was used as the reference and one scan cycle of PBS was used as the baseline. For each lipid, three cooling and heating scans were performed and the results averaged to determine the phase transition temperature of the lipids.
(DSC measures the heat that a sample takes up or gives off during a temperature scan.)

The compound `CCCCCCCCCCCCCC(=O)OC[C@H](COP(=O)([O-])OCC[N+](C)(C)C)OC(=O)CCCCCCCCCCCCC` [DMPC] came in with a transition temperature of 24 °C.
